According to patent US20140193843A1 (Institut Pasteur, priority 2008, published 2014):
No end group written: not given here.

What was measured:
acute mechanical pain = conditions: rat, pin-pain test, compared with morphine; cited from earlier work
[1] = test system: anti-YQRFSR antibody 3RBF-SAB; assay: Competitive ELISA immuno-assay for Opiorphin; format: binding, rabbit; conditions: at 500 ng/ml final concentration
Source text: Y represents the antibody directed against Sialorphin.
The peptide was coated on the plastic support of the micro-titration plate (96-well-ImmunoPlate, Nunc).
Inter-assay variability was less than 10%.

Substance | pain-suppressive potency (acute mechanical pain) | recognition by the antibody (specificity of the immuno-assay) [1]
QRFSR [Opiorphin, QRFSR] | as effective as morphine | –
QHNPR (Sialorphin; UniProt P13432 29-33, looked up) | – | not recognized
